For 34 molecules, EC50 results are on record in patent publication US20250129104A1, “7H-PYRROLO[2,3-D]PYRIMIDINES AND PREPARATION AND USES THEREOF” (BioSplice Therapeutics, Inc., priority 2021, published 2025).

SMILES strings stand for the structures.

For the test, the target named is recombinant DYRK1A kinase (Homo sapiens (Human), UniProt Q13627). Briefly: DYRK1A kinase assay (Ser/Thr 18 peptide Z-lyte FRET assay). It is filed as biochemical. To be noted: DYRK1A kinase activity; 15 μM ATP, 1 h room temperature; method text calls the value IC50. Put shortly: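 FRET Z-lyte read-out (coumarin/fluorescein ratio, % phosphorylation) after 1 h development; IC50 from non-linear curve fit. Reaction: 0.25 μg/mL recombinant human DYRK1A, Ser/Thr 18 peptide 4 μM, ATP 15 μM, compound in 11-point 1:3 series from 10 μM, 1 h, room temperature, duplicate wells.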
Take `Cc1cnc2ccc(-c3c[nH]c4nc(NC5CCN(C)CC5)ncc34)nn12` [Compound 1057, 5-(3-Methylimidazo[1,2-b]pyridazin-6-yl)-N-(1-methylpiperidin-4-yl)-7H-pyrrolo[2,3-d]pyrimidin-2-amine]: the EC50 came out at 0.0098 µM.

On to `CC(C)(F)CNc1ncc2c(-c3ccc4ncc(C(F)F)n4n3)c[nH]c2n1` [Compound 1081, 5-(3-(Difluoromethyl)imidazo[1,2-b]pyridazin-6-yl)-N-(2-fluoro-2-methylpropyl)-7H-pyrrolo[2,3-d]pyrimidin-2-amine], for which the EC50 worked out at 0.0026 µM.

With `CC(C)(F)CNc1ncc2c(-c3ccn4nccc4c3)c[nH]c2n1` [Compound 1125, N-(2-Fluoro-2-methylpropyl)-5-(pyrazolo[1,5-a]pyridin-5-yl)-7H-pyrrolo [2,3-d]pyrimidin-2-amine], the EC50 is 0.0046 µM.

`C[C@@H](Nc1ncc2c(-c3ccn4nccc4c3)c[nH]c2n1)C(F)(F)F` [Compound 1128, (R)-5-(Pyrazolo[1,5-a]pyridin-5-yl)-N-(1,1,1-trifluoropropan-2-yl)-7H-pyrrolo[2,3-d]pyrimidin-2-amine]: the concentration for a half-maximal effect (EC50) is 0.0024 µM.

Take `CN1CCC(Nc2ncc3c(-c4ccn5nccc5c4)c[nH]c3n2)CC1` [Compound 1146, N-(1-Methylpiperidin-4-yl)-5-(pyrazolo[1,5-a]pyridin-5-yl)-7H-pyrrolo[2,3-d]pyrimidin-2-amine]: the EC50 came out at 0.0285 µM.

On to `CC(C)(F)CNc1ncc2c(-c3ccn4ncc(F)c4c3)c[nH]c2n1` [Compound 1157, N-(2-Fluoro-2-methylpropyl)-5-(3-fluoropyrazolo[1,5-a]pyridin-5-yl)-7H-pyrrolo[2,3-d]pyrimidin-2-amine], for which the EC50 stood at 0.0689 µM.

Regarding `CN1CCC(Nc2ncc3c(-c4ccn5ncc(-c6cnn(C)c6)c5c4)c[nH]c3n2)CC1` [Compound 1190, 5-(3-(1-Methyl-1H-pyrazol-4-yl)pyrazolo[1,5-a]pyridin-5-yl)-N-(1-methylpiperidin-4-yl)-7H-pyrrolo[2,3-d]pyrimidin-2-amine], the EC50 was determined as 0.003 µM.

Take `O=C(c1cnn2ccc(-c3c[nH]c4nc(C5CCC5)ncc34)cc12)N1CCCCC1` [Compound 1205, (5-(2-Cyclobutyl-7H-pyrrolo[2,3-d]pyrimidin-5-yl)pyrazolo[1,5-a]pyridin-3-yl)(piperidin-1-yl)methanone]: the EC50 was 0.259 µM.

Turning to `CN1CCN(C(=O)c2cnn3ccc(-c4c[nH]c5ncnc(NCC6CC6)c45)cc23)CC1` [Compound 1244, (5-(4-((cyclopropylmethyl)amino)-7H-pyrrolo[2,3-d]pyrimidin-5-yl)pyrazolo[1,5-a]pyridin-3-yl)(4-methylpiperazin-1-yl)methanone], the EC50 worked out at 0.494 µM.

In the case of `CN(C)C(=O)c1cnn2ccc(-c3c[nH]c4nc(C5CC5)ncc34)cc12` [Compound 1245, 5-(2-Cyclopropyl-7H-pyrrolo[2,3-d]pyrimidin-5-yl)-N,N-dimethylpyrazolo [1,5-a]pyridine-3-carboxamide], the concentration for a half-maximal effect (EC50) stood at 0.182 µM.

For the molecule `CN(C(=O)c1cnn2ccc(-c3c[nH]c4nc(C5CC5)ncc34)cc12)C1CC(F)(F)C1` [Compound 1379, 5-(2-Cyclopropyl-7H-pyrrolo[2,3-d]pyrimidin-5-yl)-N-(3,3-difluorocyclobutyl)-N-methylpyrazolo[1,5-a]pyridine-3-carboxamide], the half-maximal effective concentration (EC50) stood at 0.0798 µM.

In the case of `O=C(NCC1CC(F)(F)C1)c1cnn2ccc(-c3c[nH]c4nc(C5CC5)ncc34)cc12` [Compound 1422, 5-(2-Cyclopropyl-7H-pyrrolo[2,3-d]pyrimidin-5-yl)-N-((3,3-difluorocyclobutyl)methyl)pyrazolo[1,5-a]pyridine-3-carboxamide], the EC50 was 0.006 µM.

Regarding `CC(C)Nc1ncc2c(-c3ccn4ncc(C(=O)NCC5CC(F)(F)C5)c4c3)c[nH]c2n1` [Compound 1428, N-((3,3-Difluorocyclobutyl)methyl)-5-(2-(isopropylamino)-7H-pyrrolo[2,3-d]pyrimidin-5-yl)pyrazolo[1,5-a]pyridine-3-carboxamide], the EC50 came out at 0.0114 µM.

`CO[C@H]1CC[C@H](NC(=O)c2cnn3ccc(-c4c[nH]c5nc(C6CC6)ncc45)cc23)CC1` [Compound 1465, 5-(2-Cyclopropyl-7H-pyrrolo[2,3-d]pyrimidin-5-yl)-N-(trans-4-methoxycyclohexyl)pyrazolo[1,5-a]pyridine-3-carboxamide]: the EC50 came to 0.0067 µM.

As for `CN1CCC(NC(=O)c2cnn3ccc(-c4c[nH]c5nc(N)ncc45)cc23)CC1` [Compound 1511, 5-(2-amino-7H-pyrrolo[2,3-d]pyrimidin-5-yl)-N-(1-methylpiperidin-4-yl)pyrazolo[1,5-a]pyridine-3-carboxamide], the EC50 worked out at 0.0034 µM.

In the case of `O=C(NC1CCOCC1)c1cnn2ccc(-c3c[nH]c4nc(C5CC5)ncc34)cc12` [Compound 1551, 5-(2-Cyclopropyl-7H-pyrrolo[2,3-d]pyrimidin-5-yl)-N-(tetrahydro-2H-pyran-4-yl)pyrazolo[1,5-a]pyridine-3-carboxamide], the EC50 worked out at 0.0075 µM.

Regarding `CC(C)Cc1ncc2c(-c3ccn4nccc4n3)c[nH]c2n1` [Compound 1636, 2-Isobutyl-5-(pyrazolo[1,5-a]pyrimidin-5-yl)-7H-pyrrolo[2,3-d]pyrimidine], the concentration for a half-maximal effect (EC50) stood at 0.214 µM.

In the case of `CC(C)(C)CNc1ncc2c(-c3ccn4nccc4n3)c[nH]c2n1` [Compound 1646, N-Neopentyl-5-(pyrazolo[1,5-a]pyrimidin-5-yl)-7H-pyrrolo[2,3-d]pyrimidin-2-amine], the EC50 was determined as 0.0191 µM.

As for `CC(F)(F)CNc1ncc2c(-c3ccn4nccc4n3)c[nH]c2n1` [Compound 1649, N-(2,2-Difluoropropyl)-5-(pyrazolo[1,5-a]pyrimidin-5-yl)-7H-pyrrolo[2,3-d]pyrimidin-2-amine], the EC50 was determined as 0.0059 µM.

Consider `FC(F)(F)CNc1ncc2c(-c3ccn4nccc4n3)c[nH]c2n1` [Compound 1650, 5-(Pyrazolo[1,5-a]pyrimidin-5-yl)-N-(2,2,2-trifluoroethyl)-7H-pyrrolo[2,3-d]pyrimidin-2-amine], for which the concentration for a half-maximal effect (EC50) is 0.0198 µM.

In the case of `C[C@@H](Nc1ncc2c(-c3ccn4nccc4n3)c[nH]c2n1)C(F)(F)F` [Compound 1651, (R)-5-(Pyrazolo[1,5-a]pyrimidin-5-yl)-N-(1,1,1-trifluoropropan-2-yl)-7H-pyrrolo[2,3-d]pyrimidin-2-amine], the EC50 is 0.0132 µM.

`C[C@H](Nc1ncc2c(-c3ccn4nccc4n3)c[nH]c2n1)C(F)(F)F` [Compound 1652, (S)-5-(Pyrazolo[1,5-a]pyrimidin-5-yl)-N-(1,1,1-trifluoropropan-2-yl)-7H-pyrrolo[2,3-d]pyrimidin-2-amine]: the EC50 is 0.103 µM.

Take `FC1(F)CCC(Nc2ncc3c(-c4ccn5nccc5n4)c[nH]c3n2)CC1` [Compound 1663, N-(4,4-Difluorocyclohexyl)-5-(pyrazolo[1,5-a]pyrimidin-5-yl)-7H-pyrrolo [2,3-d]pyrimidin-2-amine]: the concentration giving a half-maximal response (EC50) was 0.0092 µM.

As for `CN1CCC(Nc2ncc3c(-c4ccn5nccc5n4)c[nH]c3n2)CC1` [Compound 1667, N-(1-Methylpiperidin-4-yl)-5-(pyrazolo[1,5-a]pyrimidin-5-yl)-7H-pyrrolo [2,3-d]pyrimidin-2-amine], the EC50 was found to be 0.019 µM.

Take `c1cc2nc(-c3c[nH]c4nc(NC5CCOCC5)ncc34)ccn2n1` [Compound 1669, 5-(Pyrazolo[1,5-a]pyrimidin-5-yl)-N-(tetrahydro-2H-pyran-4-yl)-7H-pyrrolo [2,3-d]pyrimidin-2-amine]: the EC50 worked out at 0.0061 µM.

Consider `CC(C)(F)CNc1ncc2c(-c3ccn4ncc(F)c4n3)c[nH]c2n1` [Compound 1678, N-(2-Fluoro-2-methylpropyl)-5-(3-fluoropyrazolo[1,5-a]pyrimidin-5-yl)-7H-pyrrolo[2,3-d]pyrimidin-2-amine], for which the EC50 was determined as 0.0211 µM.

Turning to `C[C@@H](Nc1ncc2c(-c3ccn4ncc(F)c4n3)c[nH]c2n1)C(F)(F)F` [Compound 1679, (R)-5-(3-Fluoropyrazolo[1,5-a]pyrimidin-5-yl)-N-(1,1,1-trifluoropropan-2-yl)-7H-pyrrolo[2,3-d]pyrimidin-2-amine], the EC50 was found to be 0.0929 µM.

Consider `C[C@@H](Nc1ncc2c(-c3ccn4ncc(Cl)c4n3)c[nH]c2n1)C(F)(F)F` [Compound 1681, (R)-5-(3-Chloropyrazolo[1,5-a]pyrimidin-5-yl)-N-(1,1,1-trifluoropropan-2-yl)-7H-pyrrolo[2,3-d]pyrimidin-2-amine], for which the EC50 was determined as 0.0988 µM.

Regarding `CC(C)(F)CNc1ncc2c(-c3ccn4ncc(C5CC5)c4n3)c[nH]c2n1` [Compound 1695, 5-(3-Cyclopropylpyrazolo[1,5-a]pyrimidin-5-yl)-N-(2-fluoro-2-methylpropyl)-7H-pyrrolo[2,3-d]pyrimidin-2-amine], the EC50 stood at 0.0051 µM.

Take `CN1CCC(CNc2ncc3c(-c4ccc5c(c4)OCCNC5=O)c[nH]c3n2)CC1` [Compound 1758, 8-(2-(((1-Methylpiperidin-4-yl)methyl)amino)-7H-pyrrolo[2,3-d]pyrimidin-5-yl)-3,4-dihydrobenzo[f][1,4]oxazepin-5(2H)-one]: the 50% effective concentration (EC50) came out at 0.0073 µM.

Turning to `CN1CCN(c2cc(Nc3ncc4c(-c5ccc6c(c5)CCCO6)c[nH]c4n3)ccn2)CC1` [Compound 1768, 5-(Chroman-6-yl)-N-(2-(4-methylpiperazin-1-yl)pyridin-4-yl)-7H-pyrrolo [2,3-d]pyrimidin-2-amine], the EC50 worked out at 0.0348 µM.

On to `CN1CCC(Nc2ncc3c(-c4ccc5c(c4)OC(C)(C)CC5=O)c[nH]c3n2)CC1` [Compound 1801, 2,2-Dimethyl-7-(2-((1-methylpiperidin-4-yl)amino)-7H-pyrrolo[2,3-d]pyrimidin-5-yl)chroman-4-one], for which the EC50 was 0.0669 µM.

Turning to `COc1nc(CC(C)C)nc2[nH]cc(-c3ccc4ncccc4c3)c12` [Compound 1857, 6-(2-Isobutyl-4-methoxy-7H-pyrrolo[2,3-d]pyrimidin-5-yl)quinoline], the concentration for a half-maximal effect (EC50) was determined as 0.0427 µM.

With `Nc1ncc2c(-c3ccc4ncccc4c3)c[nH]c2n1` [Compound 1862, 5-(Quinolin-6-yl)-7H-pyrrolo[2,3-d]pyrimidin-2-amine], the half-maximal effective concentration (EC50) was 0.0029 µM.

For orientation: EC50 means the concentration giving half of the maximal effect.
